Literature values, collected in patent publication US9820973B2, “Pharmaceutical formulation comprising losartan potassium and chlorthalidone” (Merck Sharp & Dohme B.V., priority 2013, dated 2017).

| Solubility (in words) (across the physiologic pH range) | Dissolution of the salt (in words) (neutral to basic media) | Structure (SMILES) | Behaviour of the salt (in words) (acidic media) |
| --- | --- | --- | --- |
| low solubility | – | NS(=O)(=O)c1cc(C2(O)NC(=O)c3ccccc32)ccc1Cl (racemic) [chlorthalidone, (RS)-2-chloro-5-(1-hydroxy-3-oxo-2,3-dihydro-1H-isoindol-1-yl)benzene-1-sulfonamide] | – |
| – | readily dissolves | CCCCc1nc(Cl)c(CO)n1Cc1ccc(-c2ccccc2-c2nnn[nH]2)cc1 [Losartan potassium, 2-butyl-4-chloro-1-[p-(o-1H-tetrazol-5-ylphenyl)-benzyl]imidazole-5-methanol] | the salt dissociates and the losartan free acid precipitates as a gel layer |
